Test results reported in US20130012451A1, “COMPOSITIONS AND METHODS FOR INHIBITING MMP-9-MEDIATED CELL MIGRATION” (The Research Foundation of State University of New York, priority 2009, published 2013).
“Also recorded” adds a separate entry of the source. Like-named read-outs stand apart in the source and are kept apart here. Where no end group is shown, it is not given here.

Assays:
[1] = target: T1, CD44/MMP-9 heterodimer (Homo sapiens, UniProt P16070); assay: Co-immunoprecipitation assay of CD44/MMP-9 complex formation in transfected COS-1 cells; format: cell-based; details: COS-1 cells transfected with CD44 and MMP-9 cDNAs, peptides for 30 minutes
T1 construct: The MMP-9 cDNA containing the open reading frame of MMP-9 was amplified by a PCR approach; expressed in transfected cells; host or cells: COS-1 monkey kidney epithelial cells
Description: (§1) Procedures for Gelatin Substrate Zymography, Immunoblotting, Immunoprecipitation, Transwell Chamber Cell Migration and Phagokinetic Cell Migration Assays
(§2) Basic protocols for these techniques have been described previously (Cao et al., 1996; Dufour et al., 2008).
To further examine the importance of cross-talk between CD44 and MMP-9 in cell migration, an 8-amino acids peptide (SRPQGPFL) (SEQ ID NO: 2) was synthesized to mimic the outermost β-strand of the first blade of the MMP-9 PEX domain (IS4 peptide). As a control, a scrambled peptide with the same amino acids but rearranged in different order (GLSQPRFP) (SEQ ID NO: 35) was synthesized. COS-1 cells transfected with CD44 and MMP-9 cDNAs were treated with IS4 and IS4 scrambled peptides for 30 minutes followed by monitoring complex formations between CD44 and MMP-9 using a co-immunoprecipitation assay.

[2] = target: T2, MMP-9 homodimer (Homo sapiens, UniProt P14780); assay: Co-immunoprecipitation assay of MMP-9 homodimer formation in transfected COS-1 cells; format: cell-based
T2 construct: The MMP-9 cDNA containing the open reading frame of MMP-9 was amplified by a PCR approach; by a site-directed mutagenesis approach using wild type MMP-9 as a template; expressed in transfected cells; host or cells: COS-1 monkey kidney epithelial cells
Description: as §1, §2
COS-1 cells co-transfected with HA- and Myc-tagged MMP-9 cDNAs were then employed to examine homodimer formation using a co-immunoprecipitation approach. The HA-tagged MMP-9 proteins in the conditioned medium of transfected COS-1 cells were immunoprecipitated with anti-HA antibodies followed by a western blotting probed by anti-Myc antibodies. […] To further confirm this observation, the reciprocal co-immunoprecipitation was performed. Anti-Myc antibodies were employed to precipitate Myc-tagged MMP-9 complexes in the conditioned medium of co-transfected COS-1 cells followed by western blotting using anti-HA antibodies. This reciprocal approach confirms that MMP-9 does form a homodimer in the condition medium of transfected COS-1 cells.
(§3) One approach to blunt MMP-9 induced cell migration might be to target the herein discovered homodimer formation, which is a prerequisite for MMP-9-induced cell migration. Given the observation that the outermost β-strand of the fourth blade of the MMP-9 PEX domain is required for MMP-9 homodimerization formation, an 8-amino acids peptide (NQVDQVGY) (SEQ ID NO: 1) was synthesized to mimic the outer β-strand of blade IV of MMP-9 PEX domain (IVS4 peptide). As a control, a scrambled peptide with the same amino acids but rearranged in different order (VQYDNGQV) (SEQ ID NO: 51) was designed and synthesized. To test if IVS4 peptide blocked MMP-9 homodimer formation, COS-1 cells transfected with MMP-9 cDNA were treated with peptides for 30 minutes followed by a co-immunoprecipitation assay. […] To examine the potential therapeutic effect of this peptide, a transwell migration assay was performed. […] This IVS4 peptide, however, had no effect on cell migration induced by MT1-MMP, an integral membrane matrix metalloproteinase capable of stimulating cell migration (Cao et al., 2004).

[3] = test system: MMP-9-induced cell migration of transfected COS-1 cells; details: for MMP-9-induced cell migration: transwell chamber migration assay for 6 hours, MMP-9 transfected COS-1 cells
Procedure: (P-values reflect comparison with MMP-9 transfected cells: *P<0.05). […] COS-1 cells transfected with an empty vector or MMP-9 cDNAs were examined by a transwell chamber migration assay for 6 hours in the presence of DMSO control, specific and scramble peptides at different concentration. Each data point was performed in triplicate and the experiments was repeated three times (*P<0.05).
Transfection of plasmid DNA in COS-1 cells was achieved using polyethylenimine (Polysciences) or Transfectin™ reagents (Bio-Rad) and the transfected cells were incubated for 48 h at 37° C. followed by biochemical and biological assays.

[4] = test system: HT1080 cells; assay: Transwell chamber migration assay, HT1080 cells expressing endogenous MMP-9; format: cell-based, human; details: 100 μM peptide, 6 h at 37° C.
Procedure: Human fibrosarcoma HT1080 cells are highly invasive and metastatic. […] Since this cell line produces endogenous MMP-9, the inventors sought to test if the MMP-9 IS4 and IVS4 peptides can be used to interfere with function of endogenous MMP-9. To this end, HT1080 cells were employed and cell migratory ability was evaluated using a Transwell chamber migration assay (FIG. 11). The cells were incubated with 100 μM of IS4 peptide (SRPQGPFL) (SEQ ID NO: 2), IS4 scrambled peptide (GLSQPRFP) (SEQ ID NO: 35), IVS4 peptide (NQVDQVGY) (SEQ ID NO: 1), IVS4 scrambled peptide (VQYDNGQV) (SEQ ID NO: 51), and a combination of IS4 and IVS4 peptides for 6 h at 37° C. 1% DMSO was used as a vehicle control. Migrated cells were microscopically counted. Each data point was performed in triplicate and the experiment was repeated three times (*P<0.05). […] While not limiting the invention to any particular mechanism, it is the inventors' view that this is potentially because both inhibitory peptides target the same molecule.

[5] = test system: cell migration induced by MT1-MMP; assay: Transwell migration assay, cell migration induced by MT1-MMP; format: cell-based
Description: as §3

[6] = test system: MMP9/PEXMMP-2/Myc transfected COS-1 cells; assay: Transwell migration assay, COS-1 cells transfected with MMP9/PEXMMP-2/Myc; format: cell-based, monkey; details: co-expression of TIMP
Description: FIG. 3. TIMP-1 interferes with MMP-9 homodimerization. (A) TIMP-1, but not TIMP-2 interferes with MMP-9 dimerization in transfected COS-1 cells examined by a co-immunoprecipitation assay for conditioned medium and cell lysates (upper and middle panels), and immunoblotting for α/β tubulin (lower panel, loading control). (B) TIMP-1 co-precipitated with MMP-9 in both the lysate and the conditioned medium of transfected COS-1 cells examined by a co-immunoprecipitation assay. (C) MMP-9 chimera substituting the PEX domain with the corresponding MMP-2 interacts with TIMP-2 in transfected COS-1 cells, but not wild type MMP-9. (D) COS-1 cells transfected with corresponding cDNAs were subjected to a transwell migration assay. Three triplicated repeats were performed for each transfection. *P<0.05.
The role of TIMP-1 in interfering with MMP-9 homodimer formation remains controversial (Goldberg et al., 1992; Olson et al., 2000). This discrepancy led us to reevaluate the specific interference of TIMP-1 on proMMP-9 homodimer formation using the biochemical approach described above. […]

T2 sequence (P14780 20-707 limits assumed): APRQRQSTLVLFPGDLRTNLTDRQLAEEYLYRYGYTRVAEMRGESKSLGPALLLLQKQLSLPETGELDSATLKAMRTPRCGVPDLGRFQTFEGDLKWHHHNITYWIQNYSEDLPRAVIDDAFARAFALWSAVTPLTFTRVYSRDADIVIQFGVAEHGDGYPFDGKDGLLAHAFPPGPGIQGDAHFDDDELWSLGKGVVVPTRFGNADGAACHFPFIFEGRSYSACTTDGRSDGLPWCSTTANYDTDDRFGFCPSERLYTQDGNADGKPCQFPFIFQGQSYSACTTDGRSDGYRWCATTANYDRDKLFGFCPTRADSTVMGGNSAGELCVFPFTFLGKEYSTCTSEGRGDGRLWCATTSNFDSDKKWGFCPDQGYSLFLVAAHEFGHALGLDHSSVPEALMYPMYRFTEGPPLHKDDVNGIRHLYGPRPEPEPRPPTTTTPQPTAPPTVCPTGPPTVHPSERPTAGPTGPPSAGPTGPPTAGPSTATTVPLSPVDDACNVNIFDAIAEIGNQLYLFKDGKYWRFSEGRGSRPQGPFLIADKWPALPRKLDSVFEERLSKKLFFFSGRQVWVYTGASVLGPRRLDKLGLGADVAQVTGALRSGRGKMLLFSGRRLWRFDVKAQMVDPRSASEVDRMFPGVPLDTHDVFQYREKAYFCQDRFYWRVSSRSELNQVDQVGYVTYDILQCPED
T1 sequence (P16070 21-742, one chain of several): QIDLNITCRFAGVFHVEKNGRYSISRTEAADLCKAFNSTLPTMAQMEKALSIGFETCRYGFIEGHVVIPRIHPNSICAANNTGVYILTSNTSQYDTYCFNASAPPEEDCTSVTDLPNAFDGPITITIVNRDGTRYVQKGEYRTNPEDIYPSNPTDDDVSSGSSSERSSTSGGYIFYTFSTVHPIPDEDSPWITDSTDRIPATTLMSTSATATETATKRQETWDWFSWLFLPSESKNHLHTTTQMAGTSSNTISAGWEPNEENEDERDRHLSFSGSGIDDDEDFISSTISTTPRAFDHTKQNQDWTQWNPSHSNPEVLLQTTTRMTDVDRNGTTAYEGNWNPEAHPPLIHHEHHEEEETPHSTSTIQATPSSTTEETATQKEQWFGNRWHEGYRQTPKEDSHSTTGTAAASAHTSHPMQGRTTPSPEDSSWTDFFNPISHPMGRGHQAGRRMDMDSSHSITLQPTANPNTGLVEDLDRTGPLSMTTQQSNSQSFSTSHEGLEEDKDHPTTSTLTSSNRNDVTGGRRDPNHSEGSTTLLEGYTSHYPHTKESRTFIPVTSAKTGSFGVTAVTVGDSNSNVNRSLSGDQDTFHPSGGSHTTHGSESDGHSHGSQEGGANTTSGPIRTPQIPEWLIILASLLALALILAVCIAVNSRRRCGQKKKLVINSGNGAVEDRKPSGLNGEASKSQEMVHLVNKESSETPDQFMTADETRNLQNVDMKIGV

GLSQPRFP [IS4 scrambled peptide, control scrambled peptide with the same amino acids as IS4 rearranged in different order, reference compound]
CD44/MMP-9 heterodimer formation [1]: minimal effect

NQVDQVGY [IVS4 peptide, NQVDQVGY]
MMP-9 homodimer formation ([2]; COS-1 cells transfected with MMP-9 cDNA, treated with peptides for 30 minutes, co-immunoprecipitation): efficiently blocked | MMP-9 homodimer formation ([2]; COS-1 cells transfected with MMP-9 cDNA, treated with peptides for 30 minutes, co-immunoprecipitation, listed as IVS4): abrogates | IC50 [3]: 50 µM | MMP-9-induced cell migration [3]: inhibited MMP-9-induced cell migration in a dose-dependent manner | MMP-9-induced cell migration ([3]; listed as IVS4): efficiently reduced | MMP-9-induced cell migration ([3]; listed as IVS4 peptides): Dose dependent inhibition | HT1080 cell migration [4]: significantly reduced; also recorded: efficiently reduced | cell migration induced by MT1-MMP [5]: no effect

SRPQGPFL [IS4 peptide, SRPQGPFL]
CD44/MMP-9 heterodimer formation [1]: interferes | IC50 [3]: 12 µM | MMP-9-induced cell migration [3]: dose-dependent inhibition | MMP-9-induced cell migration ([3]; listed as IS4): efficiently reduced | MMP-9-induced cell migration ([3]; listed as IS4 peptides): Dose-dependent inhibition | HT1080 cell migration ([4]; listed as IS4): significantly reduced; also recorded: efficiently reduced

TIMP-1: tissue inhibitor of metalloproteinases, co-expressed from cDNA in COS-1 cells
MMP-9 homodimer formation ([2]; co-expression of TIMP cDNA with proMMP-9/Myc and proMMP-9/HA cDNAs in COS-1 cells, conditioned media and cell lysate): interferes; also recorded: blocking | MMP9/PEXMMP-2/Myc enhancement of COS-1 cell migration [6]: no apparent effect; also recorded: did not significantly inhibit
